Test results taken from US11254702B2, “Thionyl tetrafluoride modified compounds and uses” (The Scripps Research Institute, priority 2016, dated 2022).

Legend:
zebrafish embryos = experiment: Zebrafish embryo phenotype after incubation with compound; assay type: in vivo; settings: zebrafish embryos treated at concentrations of 10 and 20 μM; micrographic images (FIG. 14 A, B)
Description: FIG. 14 provides micrographic images of zebrafish embryos: (A) and (B) Phenotypes generated by incubating zebrafish embryos with Compound 2-23 at various concentration; (C) Lysates from Compound 2-23 treated or untreated embryos at 24 hpf were reacted with biotin-azide, pull-down with streptavidin beads and analyzed using SDS-PAGE.
FIG. 14 provides micrographic images of zebrafish embryos. Panels (A) and (B) illustrate phenotypes generated by incubating zebrafish embryos with Compound 2-23 at various concentrations. […] Panel (C) provides SDS-PAGE images of lysates from Compound 2-23 treated or untreated embryos at 24 hours post fertilization (hpf). The lysates were treated with biotin-azide and a copper(I) catalyst to react with the terminal alkyne via a copper-catalyzed azide-alkyne Click reaction and thereby attach biotin to any Compound 2-23 that may have been bound to a protein in the lysate. The biotinated lysate was then pulled-down with streptavidin beads and analyzed using SDS-PAGE.

Structure (SMILES)	melting point [°C]	phenotypical changes in the embryos (zebrafish embryos)
C#CCOC[C@H]1O[C@@H](n2cc(C)c(=O)[nH]c2=O)C[C@@H]1N=S(=O)(F)N1CCC1 (some centres unmarked)	105 to 106	
C#Cc1ccc(N=S(=O)(F)N2CCC(=O)CC2)cc1 (centres unmarked)	70	
C#CCOC[C@H]1O[C@@H](n2cc(C)c(=O)[nH]c2=O)C[C@@H]1N=S(=O)(F)Oc1ccc2c(c1)CC[C@H]1C3CCC(=O)[C@@]3(C)CC[C@H]21 (some centres unmarked)	94 to 95	
C#CCOC[C@H]1O[C@@H](n2cc(C)c(=O)[nH]c2=O)C[C@H]1N=S(=O)(F)F [Compound 2-23, ((2S,3S,5R)-5-(5-Methyl-2,4-dioxo-3,4-dihydropyrimidin-1(2H)-yl)-2-((prop-2-yn-1-yloxy)methyl)tetrahydrofuran-3-yl)sulfurimidoyl Difluoride]		significant phenotypical changes
O=C1[C@@H]([C@H](c2ccccc2)N2CCN(c3ccc(F)cc3)CC2)N=S(=O)(F)N1C1CCCCC1 (stereo partly drawn) [Compound 2-25, (4R)-2-Cyclohexyl-1-fluoro-4-((S)-(4-(4-fluorophenyl)piperazin-1-yl)(phenyl)methyl)-2,4-dihydro-3H-1λ^6,2,5-thiadiazol-3-one 1-oxide]	139 to 140	

Continued, in another order:

melting point [°C]	Structure (SMILES)	phenotypical changes in the embryos (zebrafish embryos)
113 to 115	C#Cc1ccc(NS(=O)(=O)NCC(=O)O)cc1 [Compound 4-1, (N-(4-ethynylphenyl)sulfamoyl)glycine]	
163 to 165	C#Cc1ccc(NS(=O)(=O)N[C@@H](C)C(=O)O)cc1 [Compound 4-2, (N-(4-Ethynylphenyl)sulfamoyl)-L-alanine]	
94 to 95	C#Cc1ccc(N=S(=O)(F)Oc2ccc(-c3ccccc3)cc2)cc1 (centres unmarked) [Compound 6-1, [1,1′-biphenyl]-4-yl (4-ethynylphenyl)sulfurofluoridoimidate]	
129	C#Cc1ccc(N=S(=O)(Oc2ccc(-c3ccccc3)cc2)Oc2ccc(-c3ccccc3)cc2)cc1 [Compound 7-2, Di([1,1′-biphenyl]-4-yl) (4-ethynylphenyl)sulfurimidate]	
97 to 98	C#Cc1ccc(N=S2(=O)Oc3ccccc3O2)cc1 [Compound 9-1, 2-((4-Ethynylphenyl)imino)-2λ^4-benzo[d][1,3,2]dioxathiole 2-oxide]	
101	C#Cc1ccc(N=S2(=O)Oc3c(C)ccc(C)c3O2)cc1 [Compound 9-2, 2-((4-Ethynylphenyl)imino)-4,7-dimethyl-2λ^4-benzo[d][1,3,2]dioxathiole 2-oxide]	
138 to 139	C#Cc1ccc(N=S2(=O)Oc3ccccc3-c3ccccc3O2)cc1 [Compound 9-4, 6-((4-Ethynylphenyl)imino)-6λ^4-dibenzo[d,f][1,3,2]dioxathiepine 6-oxide]	
93	C#Cc1ccc(N=S(=O)(Oc2ccccc2O)N2CCCCC2)cc1 (centres unmarked) [Compound 10-1, 2-Hydroxyphenyl N-(4-ethynylphenyl)piperidine-1-sulfonimidate]	
139 to 141	C#Cc1ccc(N=S(=O)(Oc2ccccc2O)N2CCN(C(=O)OC(C)(C)C)CC2)cc1 (stereo not drawn) [Compound 10-2, tert-Butyl 4-(N-(4-ethynylphenyl)-S-(2-hydroxyphenoxy)sulfonimidoyl)piperazine-1-carboxylate]	
